Measured values as given in PubChem BioAssay AID2060905 (Molecular Pharmacology Branch, DTP, NCI, 2025).

System: 282377-053-R-J1-PDC complex spheroid viability
Test: Anticancer human tumor 282377-053-R-J1-PDC patient-derived colon adenocarcinoma cell line growth inhibition [RAS]
Settings: for IC50: curve of first compound; for viability, T/C: stronger effect = lower value; active = viability on the fitted dose curve at most 10% of control; inactive = the rest
From the text: RAS pathway inhibitors in Combinations in Complex Spheroids
A high-throughput screen of multi-cell type tumor spheroids was designed to identify active combinations of RAS pathway inhibitors and targeted small molecules. Complex spheroids include a stromal component modeled by human endothelial cells (HUVEC) and fibroblasts modeled by human mesenchymal stem cells (MSCs). The concentration ranges selected for each drug and investigational agent were based upon clinically achievable concentrations if the clinical Cmax of the agent was known.
Compounds. The drugs and investigational agents: abemaciclib (NSC768073), cobimetinib (NSC768068), divarasib (GDC6063, NSC841802), docetaxel (NSC628503), GDC-1971 (RLY-1971, NSC841576), gemcitabine (NSC613327), inavolisib (NSC800729), ipatasertib (NSC767898), KB-0742 (NSC834161), MRTX-1133 (NSC836407), osimertinib (NSC779217), RMC-4630 (NSC839698), RMC-6236 (NSC851965), RMC-6291 (NSC852671), Ro-3306 (NSC812927), sapanisertib (NSC764658), SN-38 (NSC673596), staurosporine (NSC755774), SY5609 (NSC837396), and tovorafenib (DAY101, NSC766906), were obtained from the National Cancer Institute (NCI) Developmental Therapeutics Program Chemical Repository. The FDA-approved anticancer drug set is available from the NCI Developmental Therapeutics Program. […] The stock solutions were prepared in dimethyl sulfoxide (DMSO, Sigma-Aldrich, St. Louis, MO, cat. D2650) at 800-fold the tested concentration and stored at -70 degrees C prior to their use. All drugs and investigational agents were tested over a range starting from a high concentration at or near the clinical Cmax and decreasing in half-log increments. If the clinical Cmax for an agent had not been determined, the highest concentration tested was 10 microM.
Cell Culture. All cells were maintained in an incubator at 37 degrees C and 5% CO2 with 95% humidity. The PDC lines were cultured according to standard operating procedures established by the NCI PDMR. All PDCs were thawed and cultured in Matrigel-coated flasks prepared with a working solution of 1X Ham's F-12 nutrient mix, without supplementation (Invitrogen, Waltham, MA, cat. 11765054), 100 U/mL penicillin-streptomycin (Invitrogen, cat. 15140122), and 2.5% Matrigel (Corning Inc., Corning, NY, cat. 354248) for the first three passages. The 362531-283-R-J2-PDC and 782815-120-R-J1-PDC lines were cultured in 6C/Colon 1B media, which includes advanced DMEM/F-12 (Thermo Fisher Scientific, cat. 12634028), 10 mM HEPES (Thermo Fisher Scientific, cat. 15630080), 1X GlutaMAX supplement (Thermo Fisher Scientific, cat. 35050061), 0.1 mg/mL primocin (InvivoGen, San Diego, CA, cat. ant-pm-2), 10% defined fetal bovine serum, heat inactivated (HyClone Laboratories Inc., Logan, UT, cat. SH30070.03HI), 50% L-WRN conditioned media (ATCC, cat. CRL-3276), 1.25 mM N-Acetyl-L-cysteine (Sigma-Aldrich, cat. A9165), 10 mM nicotinamide (Sigma-Aldrich, cat. N0636), 1X B-27 supplement (Thermo Fisher Scientific, cat. 17504044), 1X N-2 supplement (Thermo Fisher Scientific, cat. 17502048), 50 ng/mL human EGF (Thermo Fisher Scientific, cat. PHG0311), and 10 microM Y-27632 dihydrochloride (Tocris Bioscience, cat. 1254). The K12877-001-R-J1-PDC line was cultured in 6I media, which includes all 6C/Colon 1B media plus 10 ng/mL human FGF-10 (PeproTech, cat. 100-26), 1 ng/mL human FGF-2 (PeproTech, cat. 100-18B), 1 µM prostaglandin E2 (Tocris Bioscience, cat. 2296), […] hydrocortisone (Sigma-Aldrich, cat. H4001), and […] bovine insulin (Sigma-Aldrich, cat. I6634). The K86415-001-R-J1-PDC line was cultured in 6D media, which includes all 6C/Colon 1B media components minus the L-WRN conditioned media. The 485176-168-R4-J1-PDC was cultured in PANC media, which includes all 6C/Colon 1B media plus 100 ng/mL human FGF-10 (PeproTech, cat. 100-26), 500 nM SB-431542 (Selleckchem, cat. S1067), and 10 nM gastrin (Tocris Bioscience, cat. 3006). […]

[1] = second compound 0.000949 µM, first compound 0.0316 µM
[2] = second compound 0.000949 µM, first compound 0.1 µM
[3] = second compound 0.000949 µM, first compound 0.316 µM
[4] = second compound 0.000949 µM, first compound 1 µM
[5] = second compound 0.000949 µM, first compound 3.16 µM
[6] = second compound 0.000949 µM, first compound 10 µM
[7] = second compound 0.003 µM, first compound 0.0316 µM
[8] = second compound 0.003 µM, first compound 0.1 µM
[9] = second compound 0.003 µM, first compound 0.316 µM
[10] = second compound 0.003 µM, first compound 1 µM
[11] = second compound 0.003 µM, first compound 3.16 µM
[12] = second compound 0.003 µM, first compound 10 µM
[13] = second compound 0.00949 µM, first compound 0.0316 µM
[14] = second compound 0.00949 µM, first compound 0.1 µM
[15] = second compound 0.00949 µM, first compound 0.316 µM
[16] = second compound 0.00949 µM, first compound 1 µM
[17] = second compound 0.00949 µM, first compound 3.16 µM
[18] = second compound 0.00949 µM, first compound 10 µM
[19] = second compound 0.03 µM, first compound 0.0316 µM
[20] = second compound 0.03 µM, first compound 0.1 µM
[21] = second compound 0.03 µM, first compound 0.316 µM
[22] = second compound 0.03 µM, first compound 1 µM
[23] = second compound 0.03 µM, first compound 3.16 µM
[24] = second compound 0.03 µM, first compound 10 µM
[25] = second compound 0.0949 µM, first compound 0.0316 µM
[26] = second compound 0.0949 µM, first compound 0.1 µM
[27] = second compound 0.0949 µM, first compound 0.316 µM
[28] = second compound 0.0949 µM, first compound 1 µM
[29] = second compound 0.0949 µM, first compound 3.16 µM
[30] = second compound 0.0949 µM, first compound 10 µM
[31] = second compound 0.3 µM, first compound 0.0316 µM
[32] = second compound 0.3 µM, first compound 0.1 µM
[33] = second compound 0.3 µM, first compound 0.316 µM
[34] = second compound 0.3 µM, first compound 1 µM
[35] = second compound 0.3 µM, first compound 3.16 µM
[36] = second compound 0.3 µM, first compound 10 µM
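Note: spheroids exposed to agents for seven days before readout.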
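Throughout, for viability, T/C: luminescence viability as percent of DMSO vehicle control wells.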

NC1c2ccccc2OC12CCN(c1cnc3c(N4CCCc5ncccc54)n[nH]c3n1)CC2 (stereo unspecified) + CCn1c(-c2cc(N3CCN(C)CC3)cnc2C(C)OC)c2c3cc(ccc31)-c1csc(n1)CC(NC(=O)C1CC1C)C(=O)N1CCCC(N1)C(=O)OCC(C)(C)C2
inactive: viability, T/C [1] 96.6% | viability, T/C [2] 102% | viability, T/C [3] 87.7% | viability, T/C [4] 99.9% | viability, T/C [5] 106% | viability, T/C [6] 140% | viability, T/C [7] 97.4% | viability, T/C [8] 102% | viability, T/C [9] 96.3% | viability, T/C [10] 99% | viability, T/C [11] 93.7% | viability, T/C [12] 98.6% | viability, T/C [13] 135% | viability, T/C [14] 96.2% | viability, T/C [15] 111% | viability, T/C [16] 90.8% | viability, T/C [17] 100% | viability, T/C [18] 107% | viability, T/C [19] 115% | viability, T/C [20] 109% | viability, T/C [21] 101% | viability, T/C [22] 123% | viability, T/C [23] 122% | viability, T/C [24] 97% | viability, T/C [25] 108% | viability, T/C [26] 118% | viability, T/C [27] 100% | viability, T/C [28] 107% | viability, T/C [29] 111% | viability, T/C [30] 112% | viability, T/C [31] 126% | viability, T/C [32] 152% | viability, T/C [33] 105% | viability, T/C [34] 117% | viability, T/C [35] 110% | viability, T/C [36] 106%
> 10 µM: IC50 (second compound 0.000949 µM) | IC50 (second compound 0.003 µM) | IC50 (second compound 0.00949 µM) | IC50 (second compound 0.03 µM) | IC50 (second compound 0.0949 µM) | IC50 (second compound 0.3 µM)

NC1c2ccccc2OC12CCN(c1cnc3c(N4CCCc5ncccc54)n[nH]c3n1)CC2 (stereo unspecified) + CCn1c(-c2cccnc2C(C)OC)c2c3cc(ccc31)N1CCOC(CC(NC(=O)C(C(C)C)N(C)C(=O)C3(F)CCN(C(=O)C#CC(C)(C)N(C)C)CC3)C(=O)N3CCCC(N3)C(=O)OCC(C)(C)C2)C1
> 10 µM: IC50 (second compound 0.000949 µM) | IC50 (second compound 0.003 µM) | IC50 (second compound 0.00949 µM) | IC50 (second compound 0.03 µM) | IC50 (second compound 0.0949 µM) | IC50 (second compound 0.3 µM)
inactive: viability, T/C [1] 103% | viability, T/C [2] 104% | viability, T/C [3] 99.5% | viability, T/C [4] 101% | viability, T/C [5] 110% | viability, T/C [6] 125% | viability, T/C [7] 101% | viability, T/C [8] 100% | viability, T/C [9] 94.7% | viability, T/C [10] 100% | viability, T/C [11] 104% | viability, T/C [12] 103% | viability, T/C [13] 96.5% | viability, T/C [14] 104% | viability, T/C [15] 97.9% | viability, T/C [16] 114% | viability, T/C [17] 98.4% | viability, T/C [18] 71.9% | viability, T/C [19] 91.9% | viability, T/C [20] 101% | viability, T/C [21] 116% | viability, T/C [22] 94.8% | viability, T/C [23] 86% | viability, T/C [24] 110% | viability, T/C [25] 91.6% | viability, T/C [26] 123% | viability, T/C [27] 104% | viability, T/C [28] 97.9% | viability, T/C [29] 99% | viability, T/C [30] 118% | viability, T/C [31] 92.6% | viability, T/C [32] 88.4% | viability, T/C [33] 95.5% | viability, T/C [34] 96.8% | viability, T/C [35] 125% | viability, T/C [36] 141%

C=CC(=O)N1CCN(c2nc(OCC3CCCN3C)nc3c(F)c(-c4nc(N)cc(C)c4C(F)(F)F)c(Cl)cc23)C(C)C1 (stereo unspecified) + CCn1c(-c2cc(N3CCN(C)CC3)cnc2C(C)OC)c2c3cc(ccc31)-c1csc(n1)CC(NC(=O)C1CC1C)C(=O)N1CCCC(N1)C(=O)OCC(C)(C)C2
> 1 µM: IC50 (second compound 0.000949 µM) | IC50 (second compound 0.003 µM) | IC50 (second compound 0.00949 µM) | IC50 (second compound 0.03 µM) | IC50 (second compound 0.0949 µM) | IC50 (second compound 0.3 µM)
inactive: viability, T/C (second compound 0.000949 µM, first compound 0.00316 µM) 110% | viability, T/C (second compound 0.000949 µM, first compound 0.01 µM) 101% | viability, T/C [1] 112% | viability, T/C [2] 102% | viability, T/C [3] 129% | viability, T/C [4] 107% | viability, T/C (second compound 0.003 µM, first compound 0.00316 µM) 108% | viability, T/C (second compound 0.003 µM, first compound 0.01 µM) 120% | viability, T/C [7] 98.4% | viability, T/C [8] 115% | viability, T/C [9] 73.2% | viability, T/C [10] 143% | viability, T/C (second compound 0.00949 µM, first compound 0.00316 µM) 134% | viability, T/C (second compound 0.00949 µM, first compound 0.01 µM) 97.6% | viability, T/C [13] 115% | viability, T/C [14] 89.5% | viability, T/C [15] 108% | viability, T/C [16] 110% | viability, T/C (second compound 0.03 µM, first compound 0.00316 µM) 120% | viability, T/C (second compound 0.03 µM, first compound 0.01 µM) 85.6% | viability, T/C [19] 88.1% | viability, T/C [20] 96.6% | viability, T/C [21] 93.6% | viability, T/C [22] 107% | viability, T/C (second compound 0.0949 µM, first compound 0.00316 µM) 124% | viability, T/C (second compound 0.0949 µM, first compound 0.01 µM) 113% | viability, T/C [25] 106% | viability, T/C [26] 119% | viability, T/C [27] 91.8% | viability, T/C [28] 133% | viability, T/C (second compound 0.3 µM, first compound 0.00316 µM) 113% | viability, T/C (second compound 0.3 µM, first compound 0.01 µM) 93.7% | viability, T/C [31] 134% | viability, T/C [32] 120% | viability, T/C [33] 104% | viability, T/C [34] 121%
